Target: NLRP3 inflammasome (Homo sapiens, UniProt Q96P20)
Test: IL-1β assay in IFN-γ-differentiated, LPS-primed, ATP-activated THP-1 cells (ELISA)
Type: cell-based
Details: 50 ng/mL LPS priming, 2.5 mM ATP activation, 2 hours
Experimental: Monocytic THP-1 cells (ATCC: TIB-202) are maintained in accordance with the provider's instructions in RPMI media (Life Technologies, Cat #A10491-01); RPMI is supplemented with 10% heat inactivated fetal bovine serum (Hyclone Cat #SH30396.03). The cells are differentiated into macrophages by the addition of 25 ng/mL IFN-7 (PeproTech, Cat #300-02-100UG) for 24 hours at 37° C./5% CO2. Media is exchanged with fresh media with no FBS, and the cells are treated with 50 ng/mL LPS (priming step) for 24 hours at 37° C./5% CO2 (LPS-EK: Invivogen, Cat #tlrl-peklps). Media is exchanged with fresh media with no FBS. The cells are plated at 40,000 cells per well in 384-well flat-bottom cell culture plates (Costar 3764) containing compounds (added in 1:1000) in a 1:3.16 serial dilution series in DMSO and are incubated for 30 minutes at 37° C./5% CO2. The NLRP3 inflammasome is activated with the addition of 2.5 mM ATP (Sigma Cat #A3377) and the cells are incubated for 2 hours at 37° C./5% CO2. At the end of the incubation period, 40 μL supernatant is removed, and […] are monitored using an ELISA (Human […], R&D systems, Cat #DY201) in accordance with the manufacturer's instructions.
The IC50 values are calculated from a plot of percentage of inhibition versus the inhibitor concentration by a logistics curve fit according to: Y=[Bottom+(Top−Bottom)]/(1+10^[(Log IC50−X)·Hill Slope], where Y is the % inhibition at the inhibitor concentration, X, “Bottom” is the lowest inhibition value, i.e. 0%, “Top” is the maximum inhibition value, i.e. 100%, and the “Hill Slope” describes the slope of the sigmoidal curve between the “Bottom” and “Top” values. The curve fitting was conducted with internally developed software.

Sequence of NLRP3 inflammasome (Q96P20 whole entry): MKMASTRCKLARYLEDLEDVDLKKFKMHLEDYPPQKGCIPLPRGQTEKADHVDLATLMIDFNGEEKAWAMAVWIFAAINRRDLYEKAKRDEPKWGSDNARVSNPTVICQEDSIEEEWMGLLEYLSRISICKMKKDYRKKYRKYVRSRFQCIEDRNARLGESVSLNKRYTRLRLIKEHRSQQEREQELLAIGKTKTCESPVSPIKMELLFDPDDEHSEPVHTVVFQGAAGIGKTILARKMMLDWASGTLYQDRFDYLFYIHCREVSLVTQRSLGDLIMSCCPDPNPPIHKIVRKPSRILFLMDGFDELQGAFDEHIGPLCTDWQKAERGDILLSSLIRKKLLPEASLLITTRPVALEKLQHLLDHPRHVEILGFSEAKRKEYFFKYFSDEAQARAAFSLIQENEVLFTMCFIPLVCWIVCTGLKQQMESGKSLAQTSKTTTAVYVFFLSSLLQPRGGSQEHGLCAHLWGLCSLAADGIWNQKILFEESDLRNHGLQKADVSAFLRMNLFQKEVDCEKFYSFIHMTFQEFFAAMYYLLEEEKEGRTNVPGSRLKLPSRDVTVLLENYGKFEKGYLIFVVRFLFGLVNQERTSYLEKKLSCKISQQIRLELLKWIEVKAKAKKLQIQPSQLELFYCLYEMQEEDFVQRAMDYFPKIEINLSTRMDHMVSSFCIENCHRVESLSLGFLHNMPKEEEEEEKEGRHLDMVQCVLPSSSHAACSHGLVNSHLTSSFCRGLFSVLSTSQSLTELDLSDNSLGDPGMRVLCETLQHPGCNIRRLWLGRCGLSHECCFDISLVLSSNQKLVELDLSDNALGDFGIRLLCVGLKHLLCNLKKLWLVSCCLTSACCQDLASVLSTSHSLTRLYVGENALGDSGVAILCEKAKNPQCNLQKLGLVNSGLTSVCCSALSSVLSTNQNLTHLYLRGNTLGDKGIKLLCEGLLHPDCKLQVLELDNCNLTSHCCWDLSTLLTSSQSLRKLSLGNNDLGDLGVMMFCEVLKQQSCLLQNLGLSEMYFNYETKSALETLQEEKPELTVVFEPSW

Row | Compound | IC50 [nM]
1 | O[C@]1(C(F)(F)F)CCC[C@@H](Nc2nnc(-c3ccc(Cl)cc3)c3ccccc23)C1 (racemic) [Example 114] | 1230
2 | CN1CCCC(Nc2nnc(-c3ccc(C(F)F)nc3)c3ccccc23)C1 (stereo not drawn) [Example 2, 4-(6-(difluoromethyl)pyridin-3-yl)-N-(1-methylpiperidin-3-yl)phthalazin-1-amine] | 5250
3 | CC1(c2ccc(-c3nnc(Nc4cccc(O)c4)c4ccccc34)cc2)CC1 [Example 3, 3-((4-(4-(1-methylcyclopropyl)phenyl)phthalazin-1-yl)amino)phenol] | 1120
4 | Oc1cccc(Nc2nnc(-c3ccc(C4(C(F)(F)F)CC4)cc3)c3ccccc23)c1 [Example 4, 3-((4-(4-(1-(trifluoromethyl)cyclopropyl)phenyl)phthalazin-1-yl)amino)phenol] | 1410
5 | CC(C)(C)c1ccc(-c2nnc(Nc3cccc(O)c3)c3ccccc23)cc1 [Example 5, 3-((4-(4-(tert-butyl)phenyl)phthalazin-1-yl)amino)phenol] | 1440
6 | Oc1cccc(Nc2nnc(-c3cccc(C4CCC4)c3)c3ccccc23)c1 [Example 6, 3-((4-(3-cyclobutylphenyl)phthalazin-1-yl)amino)phenol] | 2880
7 | CC(C)c1ccc(-c2nnc(Nc3cccc(O)c3)c3ccccc23)cc1 [Example 7, 3-((4-(4-isopropylphenyl)phthalazin-1-yl)amino)phenol] | 977
8 | Oc1cccc(Nc2nnc(-c3ccc(C4CC4)cc3F)c3ccccc23)c1 [Example 8, 3-((4-(4-cyclopropyl-2-fluorophenyl)phthalazin-1-yl)amino)phenol] | 891
9 | CC(C)(C)c1ccc(-c2nnc(Nc3cccc(O)c3)c3ccccc23)cn1 [Example 9, 3-((4-(6-(tert-butyl)pyridin-3-yl)phthalazin-1-yl)amino)phenol] | 1660
10 | Oc1cccc(Nc2nnc(-c3cccc(C4CC4)c3)c3ccccc23)c1 [Example 10, 3-((4-(3-cyclopropylphenyl)phthalazin-1-yl)amino)phenol] | 437
11 | CN1CCCC(Nc2nnc(-c3ccc(F)cc3)c3ccccc23)C1 (stereo not drawn) [Example 11, 4-(4-fluorophenyl)-N-(1-methylpiperidin-3-yl)phthalazin-1-amine] | 933
12 | Cc1ccccc1-c1nnc(NC2CCCN(C)C2)c2ccccc12 (stereo not drawn) [Example 12, N-(1-methylpiperidin-3-yl)-4-(o-tolyl)phthalazin-1-amine] | 2570
13 | CN1CCCC(Nc2nnc(-c3ccc(C(F)(F)F)cc3)c3ccccc23)C1 (stereo not drawn) [Example 13, N-(1-methylpiperidin-3-yl)-4-(4-(trifluoromethyl)phenyl)phthalazin-1-amine] | 65
14 | Cc1ccc(-c2nnc(NC3CCCN(C)C3)c3ccccc23)cc1 (stereo not drawn) [Example 15, N-(1-methylpiperidin-3-yl)-4-(p-tolyl)phthalazin-1-amine] | 115
15 | Cc1cccc(-c2nnc(NC3CCCN(C)C3)c3ccccc23)c1 (stereo not drawn) [Example 18, N-(1-methylpiperidin-3-yl)-4-(m-tolyl)phthalazin-1-amine] | 1150
16 | CN1CCCC(Nc2nnc(-c3ccc(C(C)(C)C)nc3)c3ccccc23)C1 (stereo not drawn) [Example 20, 4-(6-(tert-butyl)pyridin-3-yl)-N-(1-methylpiperidin-3-yl)phthalazin-1-amine] | 626
17 | CN1CCCC(Nc2nnc(-c3ccc(C(F)(F)F)nc3)c3ccccc23)C1 (stereo not drawn) [Example 22, N-(1-methylpiperidin-3-yl)-4-(6-(trifluoromethyl)pyridin-3-yl)phthalazin-1-amine] | 897
18 | Cc1ccc(-c2nnc(Nc3cccc(O)c3)c3ccccc23)cc1 [Example 38, 3-((4-(p-tolyl)phthalazin-1-yl)amino)phenol] | 1120
19 | CN1CCCC(Nc2nnc(-c3ccccc3)c3ccccc23)C1 (stereo not drawn) [Example 42, N-(1-methylpiperidin-3-yl)-4-phenylphthalazin-1-amine] | 1150
20 | COc1ccc(-c2nnc(N(C)C3CCCN(C)C3)c3ccccc23)cc1 (stereo not drawn) [Example 45, 4-(4-methoxyphenyl)-N-methyl-N-(1-methylpiperidin-3-yl)phthalazin-1-amine] | 4120

Further lines, results first:

Row | IC50 [nM] | Compound
21 | 2950 | CN1CCCC(Nc2nnc(-c3ccccc3Cl)c3ccccc23)C1 (stereo not drawn) [Example 14, 4-(2-chlorophenyl)-N-(1-methylpiperidin-3-yl)phthalazin-1-amine]
22 | 4470 | CN1CCCC(Nc2nnc(-c3cccc(Cl)c3)c3ccccc23)C1 (stereo not drawn) [Example 17, 4-(3-chlorophenyl)-N-(1-methylpiperidin-3-yl)phthalazin-1-amine]
23 | 10000 | CN1CCC[C@@H](Nc2nnc(-c3ccc(O)cc3)c3ccncc23)C1 [Example 23, (R)-4-(4-((1-methylpiperidin-3-yl)amino)pyrido[3,4-d]pyridazin-1-yl)phenol]
24 | 157 | CN1CCC[C@@H](Nc2nnc(-c3ccc(OC(F)(F)F)c(C#N)c3)c3ccncc23)C1 [Example 24, (R)-5-(4-((1-methylpiperidin-3-yl)amino)pyrido[3,4-d]pyridazin-1-yl)-2-(trifluoromethoxy)benzonitrile]
25 | 199 | COc1ccc(-c2nnc(N[C@@H]3CCCN(C)C3)c3cnccc23)cc1F [Example 25, (R)-1-(3-fluoro-4-methoxyphenyl)-N-(1-methylpiperidin-3-yl)pyrido[3,4-d]pyridazin-4-amine]
26 | 603 | CN1CCC[C@@H](Nc2nnc(-c3ccc4c(c3)OCCO4)c3ccncc23)C1 [Example 26, (R)-1-(2,3-dihydrobenzo[b][1,4]dioxin-6-yl)-N-(1-methylpiperidin-3-yl)pyrido[3,4-d]pyridazin-4-amine]
27 | 38 | CN1CCC[C@@H](Nc2nnc(-c3ccc(OC(F)F)cc3)c3ccncc23)C1 [Example 27, (R)-1-(4-(difluoromethoxy)phenyl)-N-(1-methylpiperidin-3-yl)pyrido[3,4-d]pyridazin-4-amine]
28 | 34 | Cc1cc(Cl)ccc1-c1nnc(N[C@@H]2CCCN(C)C2)c2cnccc12 [Example 31, (R)-1-(4-chloro-2-methylphenyl)-N-(1-methylpiperidin-3-yl)pyrido[3,4-d]pyridazin-4-amine]
29 | 36 | CN1CCC[C@@H](Nc2nnc(-c3ccc(OC(F)(F)F)cc3)c3ccncc23)C1 [Example 32, (R)—N-(1-methylpiperidin-3-yl)-1-(4-(trifluoromethoxy)phenyl)pyrido[3,4-d]pyridazin-4-amine]
30 | 33 | CN1CCC[C@@H](Nc2nnc(-c3ccc(C(F)(F)F)cc3F)c3ccncc23)C1 [Example 33, (R)-1-(2-fluoro-4-(trifluoromethyl)phenyl)-N-(1-methylpiperidin-3-yl)pyrido[3,4-d]pyridazin-4-amine]
31 | 28 | CN1CCC[C@@H](Nc2nnc(-c3ccc(C(F)(F)F)cc3)c3ccncc23)C1 [Example 34, (R)—N-(1-methylpiperidin-3-yl)-1-(4-(trifluoromethyl)phenyl)pyrido[3,4-d]pyridazin-4-amine]
32 | 77 | CN1CCC[C@@H](Nc2nnc(-c3ccc(C(F)F)cc3)c3ccncc23)C1 [Example 37, (R)-1-(4-(difluoromethyl)phenyl)-N-(1-methylpiperidin-3-yl)pyrido[3,4-d]pyridazin-4-amine]
33 | 692 | COc1cc(Cl)ccc1-c1nnc(NC2CCCN(C)C2)c2cnccc12 (stereo not drawn) [Example 47, 1-(4-chloro-2-methoxyphenyl)-N-(1-methylpiperidin-3-yl)pyrido[3,4-d]pyridazin-4-amine]
34 | 3090 | COc1cc(Cl)ccc1-c1nnc(NC2CCCN(C)C2)c2ccncc12 (stereo not drawn) [Example 48, 4-(4-chloro-2-methoxyphenyl)-N-(1-methylpiperidin-3-yl)pyrido[3,4-d]pyridazin-1-amine]
35 | 288 | Cc1cc(Cl)ccc1-c1nnc(NC2CCCN(C)C2)c2cnccc12 (stereo not drawn) [Example 49, 1-(4-chloro-2-methylphenyl)-N-(1-methylpiperidin-3-yl)pyrido[3,4-d]pyridazin-4-amine]
36 | 1320 | Cc1cc(Cl)ccc1-c1nnc(NC2CCCN(C)C2)c2ccncc12 (stereo not drawn) [Example 50, 4-(4-chloro-2-methylphenyl)-N-(1-methylpiperidin-3-yl)pyrido[3,4-d]pyridazin-1-amine]
37 | 158 | CN1CCCC(Nc2nnc(-c3ccc(Cl)cc3Cl)c3ccncc23)C1 (stereo not drawn) [Example 51, 1-(2,4-dichlorophenyl)-N-(1-methylpiperidin-3-yl)pyrido[3,4-d]pyridazin-4-amine]
38 | 2400 | CN1CCCC(Nc2nnc(-c3ccc(Cl)cc3Cl)c3cnccc23)C1 (stereo not drawn) [Example 52, 4-(2,4-dichlorophenyl)-N-(1-methylpiperidin-3-yl)pyrido[3,4-d]pyridazin-1-amine]
39 | 40 | COc1ccc(-c2nnc(N[C@@H]3CCCN(C)C3)c3ccccc23)c(F)c1 [Example 53, (R)-4-(2-fluoro-4-methoxyphenyl)-N-(1-methylpiperidin-3-yl)phthalazin-1-amine]

From patent US20250340563A1, “FUSED PYRIDAZINE DERIVATIVES AS NLRP3 INHIBITORS” (Takeda Pharmaceutical Company Limited, priority 2022, published 2025)
